Values of other authors in patent publication US6641838B2, “Effervescent drug delivery system for oral administration” (Cima Labs Inc., priority 1998, dated 2003).

details: in vivo, po

Compound	Bioavailability (%)	average bioavailability	range of bioavailability (inter- and intrasubject variability)
CN(C)C(=O)Oc1ccc[n+](C)c1 [Pyridostigmine]	14 ± 3	–	–
Oc1ccc2c3c1O[C@H]1[C@@H](O)CC[C@@]4(O)[C@@H](C2)N(CC2CCC2)CC[C@]314 [Nalbuphine]	25 ± 16	approximately 17%	6-40%
Methyldopa	25 ± 16	25%	–
CNC1(c2ccccc2Cl)CCCCC1=O (stereo not shown) [Ketamine]	20 ± 7	–	–

same assay, conditions: orally administered drug, conventional dosage forms; examples of drugs with poor bioavailability

Compound	Bioavailability (%)
C=CCN1CC[C@]23c4c5ccc(O)c4O[C@H]2C(=O)CC[C@@]3(O)[C@H]1C5 [Naloxone]	2%
Cc1cc2nc3c(=O)[nH]c(=O)nc-3n(C[C@H](O)[C@H](O)[C@H](O)CO)c2cc1C [Riboflavin]	11%
CC(=O)CCCCn1c(=O)c2c(ncn2C)n(C)c1=O [Pentoxifylline]	19 ± 13%
Nc1nc2c(ncn2COCCO)c(=O)[nH]1 [Acyclovir]	15 − 30%
NNc1nncc2ccccc12 [Hydralazine]	16 − 35%
CC[N+](C)(C)Cc1ccccc1Br [Bretylium]	23 ± 9%
CC(C)(C)NCC(O)c1cc(O)cc(O)c1 (stereo not shown) [Terbutaline]	14 ± 2%
CC(=O)OC[C@H]1O[C@@H]([S-])[C@H](OC(C)=O)[C@@H](OC(C)=O)[C@@H]1OC(C)=O.CCP(CC)CC.[Au+] [Auranofin]	15 − 25%
Sc1ncnc2nc[nH]c12 [Mercaptopurine]	12 ± 7%
CN(C)CCC=C1c2ccccc2COc2ccccc21 [Doxepin]	27 ± 10%
CC(CCc1ccccc1)NCC(O)c1ccc(O)c(C(N)=O)c1 (stereo not shown) [Labetalol]	18 ± 5%
Nc1ccn([C@@H]2O[C@H](CO)[C@@H](O)[C@@H]2O)c(=O)n1 [Cytarabine]	20%
